These results are taken from US20070207967A1, “Peptide Inhibitors of Matrix Metalloproteinase Activity” (CTT CANCER TARGETING TECHNOLOGIES OY, priority 2004, published 2007).

Test [1] concerns uPAR. As to the kind of experiment: uPAR cleavage on THP-1 cells. The conditions noted are these: InhI 20 μM, CTT 200 μM, aprotinin 25 μg/ml. The format is cell-based, human. From the text: (§1) uPAR clevage. […] Chymotrypsin cleavage was done without aprotinin.
The subject of test [2] is HT1080 cells. Briefly: Pericellular proteolysis (gelatinolysis) of HT1080 cells. The format is cell-based, human. The settings on record: HT1080, 48 h, PDBu, fibronectin/FITC-labelled gelatin coating. As for the experimental part: Pericellular proteolysis. Microtiter wells were coated with a mixture of fibronectin (10 μg/ml) and FITC-labelled gelatin (100 μg/ml) followed by saturation with 1% BSA in PBS. HT1080 cells (50 000 in 100 μl 0.1% BSA/DMEM) were incubated in the presence of 20 nM PDBu (4β-phorbol-12,13-dibutyrate, SigmaAldrich) and the peptides or the MMP-2/MMP-9 selective inhibitor InhI (Calbiochem). As a control non-activated cells and medium without the cells were used. Gelatinolysis after 48 hours was measured as the increase of fluorescence from a 50 μl aliquot of the conditioned medium using Wallac Victor^2 reader.

The subject of test [3] is gelatinase. The conditions noted are these: 100 μM concentration; ref (15); cited from earlier work.
Test [4] addresses T1, CBD (Homo sapiens, UniProt P14780).
T1 construct: CBD (amino acids Gly^204-Gly^373) was amplified from MMP-9 cDNA; made in house; host or cells: E. coli
Briefly: Gelatin binding to immobilized CBD. The conditions noted are these: biotinylated gelatin. As for the experimental part:
(§2) Gelatin and CBD binding assays. Recombinant CBD or human plasma fibronectin (Calbiochem) (0.2 μg/ml in TBS) was immobilized in microtiter wells. The wells were saturated with 1% BSA-PBST. Biotinylated gelatin (0.2 μg/ml in 1% BSA-PBST) was added with or without peptides at the concentrations indicated or with an excess of unlabelled gelatin (10 μg/ml) and allowed to bind for 1 h. Bound gelatin was detected with streptavidin-peroxidase. CBD binding to immobilized fibronectin, the 110-kDa fragment of fibronectin (Upstate Biotechnology) or urea-denaturated human plasma vitronectin (17) (1 μg/well) was studied using biotinylated CBD (5 μg/ml) in 1% BSA-PBST in the presence or absence of 20 μM peptides.

Test [5] deals with T2, pro-MMP-9 (Homo sapiens, UniProt P14780). As to the kind of experiment: Phage binding to pro-MMP-9 with competitors. The conditions noted are these: competitor peptides 20 μM, gelatin 2.5 μg/ml; for Binding of the CRV-phage to pro-MMP-9, competition: TIMP-1 2.5 μg/ml. The procedure: Phage display. Phage display selections were made using random peptide libraries CX7-10C and X9-10 (13). Purified human pro-MMP-9 (9) or recombinant MMP-9 C domain (2 μg/ml) was immobilized on microtiter wells and the wells were blocked with BSA. The phage were added in 50 mM Hepes (pH 7.5)/5 mM CaCl2/1 μM ZnCl2/150 mM NaCl/2% BSA. After three rounds of selection the phage sequences were determined (14). The phage binding specificity was tested with pro-MMPs or the recombinant domains (20 ng/well). The phage (10^8 transducing units/well) were allowed to bind in the absence or presence of competitor peptides (20 μM), gelatin (2.5 μg/ml) or TIMP-1 (2.5 μg/ml, Calbiochem) followed by washings with PBS/0.05% Tween20 (PBST). The phage were detected with a peroxidase-conjugated anti-phage antibody (Amersham Biosciences).

Test [6] deals with THP-1 monocytic cells. As to the kind of experiment: THP-1 cell migration on GST-LLG-C4. It is filed as cell-based, human. The settings on record: GST-LLG-C4 substratum, 16 h. As for the experimental part: (§3) Cell migration and invasion. The cell migration assay was conducted using transwell migration chambers (8 μm pore size, Costar) in 10% serum-containing medium (2,14). Briefly, the membranes were coated on both sides with 40 μg/ml GST or with the β2 integrin ligand peptide […]-GST fusion (GST-LLG-C4) and blocked with complete medium. THP-1 cells (50 000/100 μl) were preincubated with the peptides for 1 h in serum-containing medium. The cells were allowed to migrate for 16 h and were then stained with crystal violet and counted (14). The HT1080 (20 000 cells/I100 μl) invasion assay was performed as the THP-1 migration, except that matrigel coated transwells (BD Biosciences) were used.

The subject of test [7] is HT1080 fibrosarcoma. As to the kind of experiment: HT1080 invasion through matrigel. The format is cell-based, human. The procedure:
as §3

Test [8] concerns uPAR. Briefly: uPAR cleavage on HT1080 cells. The format is cell-based, human. The settings on record: for Inhibition of uPAR cleavage: HT1080, InhI 20 μM, aprotinin 25 μg/ml, benzamidine 20 μM, 48 h.
Source text: as §1

The target of test [9] is T1, CBD. As to the kind of experiment: Pepspot membrane assay of CBD binding. The conditions noted are these: 0.2 μg/ml biotinylated CBD. As for the experimental part: Peptide synthesis. The phage peptides were initially prepared in a recombinant form using intein fusions (12,15). Chemical peptide synthesis was done using Fmoc-chemistry and the purity and integrity of the peptides was verified by mass spectroscopy (15). The peptides were dissolved in water, except the CRV and DDGW peptides, which were dissolved in 50 mM NaOH at a 10 mM concentration and then diluted into PBS to neutralize the pH. The […] and […] peptides were synthesized on a cellulose membrane. The membrane was blocked with 3% BSA in TBS/0.05% Tween 20, and incubated with 0.2 μg/ml biotinylated CBD. Bound CBD was detected using peroxidase-conjugated streptavidin (1:10 000 dilution, Pierce) and chemiluminescence detection.

The target in test [10] is T2, pro-MMP-9. As to the kind of experiment: Pro-MMP-9 activation in THP-1 cells, zymography. The format is cell-based. The conditions noted are these: THP-1, pro-MMP-3 and plasminogen, peptides 200 μM. As for the experimental part:
Activation of MMP-9. THP-1 cells (40 000/100 μl) or confluent HT1080 cells were incubated for 16 h in the presence or absence of 2.5 μg/ml plasminogen, 0.5 μg/ml pro-MMP-3 (Oncogene Research Products), 40 nM PDBu, and the peptides at a 200 μM concentration unless otherwise indicated. Aliquots of the conditioned media were analyzed by gelatin zymography (9). […] The samples were analyzed by gelatin zymography.

Test [11] concerns the target αM integrin I domain (Homo sapiens, UniProt P11215). As to the kind of experiment: Pro-MMP-9 binding to αM integrin I domain. As for the experimental part: Pro-MMP-9 and gelatin binding to leukocyte αM integrin. Pro-MMP-9 binding to the αM I domain in the presence of peptides was studied as described (12). Gelatin binding to the pro-MMP-^9/αMβ2 integrin complex was studied by immobilizing the integrin αMβ2 (12) or αIIbβ3 as a control (Enzyme Research Laboratories, South Bend, Ind.) (1 μg/well) in TBS/1 mM CaCl2/1 mM MgCl2 followed by saturation of the wells with 1% BSA in PB ST. Pro-MMP-9 (100 ng/well) was incubated for 2 h and the unbound pro-MMP-9 was washed away. Biotinylated gelatin (2.5 μg/ml) was allowed to bind for 30 min at room temperature. Bound gelatin was detected with streptavidin-peroxidase.

Test [12] concerns the target trypsin-activated MMP-9 (Homo sapiens, UniProt P14780). As to the kind of experiment: Gelatinase inhibition assay (gelatin degradation), MMP-9. The format is biochemical. The conditions noted are these: biotinylated gelatin substrate. The procedure: (§4) Gelatinase inhibition assay. Inhibition of aminophenylmercuric acetate (APMA)-activated MMP-2 and trypsin-activated MMP-9 was performed using biotinylated gelatin as a substrate (15).

The target of test [13] is T3, aminophenylmercuric acetate (APMA)-activated MMP-2 (Homo sapiens, UniProt P08253).
T3 sequence (P08253 110-660): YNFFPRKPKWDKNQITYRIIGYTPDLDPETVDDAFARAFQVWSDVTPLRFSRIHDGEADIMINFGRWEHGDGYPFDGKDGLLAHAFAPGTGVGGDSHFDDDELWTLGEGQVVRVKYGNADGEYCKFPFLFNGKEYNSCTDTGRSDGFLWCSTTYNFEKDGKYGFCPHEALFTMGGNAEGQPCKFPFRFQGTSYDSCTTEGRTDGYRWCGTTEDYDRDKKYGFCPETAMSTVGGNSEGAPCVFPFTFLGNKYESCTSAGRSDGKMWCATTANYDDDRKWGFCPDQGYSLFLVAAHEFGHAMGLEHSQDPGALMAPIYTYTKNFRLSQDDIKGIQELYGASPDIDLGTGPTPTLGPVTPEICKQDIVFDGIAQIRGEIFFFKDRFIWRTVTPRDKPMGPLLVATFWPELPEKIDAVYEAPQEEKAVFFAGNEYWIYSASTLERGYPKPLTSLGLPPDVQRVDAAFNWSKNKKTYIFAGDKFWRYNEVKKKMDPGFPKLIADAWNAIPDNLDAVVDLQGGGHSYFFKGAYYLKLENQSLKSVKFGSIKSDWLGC
As to the kind of experiment: Gelatinase inhibition assay (gelatin degradation), MMP-2. The format is biochemical. The settings on record: biotinylated gelatin substrate. As for the experimental part:
as §4

Test [14] concerns the target T1, CBD. Briefly: CBD binding to fibronectin and vitronectin, solid phase. The settings on record: 20 μM peptides, biotinylated CBD. As for the experimental part: as §2
Test [15] deals with gelatinase. As to the kind of experiment: Gelatin degradation assay, gelatinase not specified. It is filed as biochemical. The procedure:
as §4

Test [16] deals with fibronectin. As to the kind of experiment: Gelatin binding to fibronectin. Also noted: species or system human. The conditions noted are these: data not shown. The procedure:
as §2

T2 sequence (P14780 20-707 limits assumed): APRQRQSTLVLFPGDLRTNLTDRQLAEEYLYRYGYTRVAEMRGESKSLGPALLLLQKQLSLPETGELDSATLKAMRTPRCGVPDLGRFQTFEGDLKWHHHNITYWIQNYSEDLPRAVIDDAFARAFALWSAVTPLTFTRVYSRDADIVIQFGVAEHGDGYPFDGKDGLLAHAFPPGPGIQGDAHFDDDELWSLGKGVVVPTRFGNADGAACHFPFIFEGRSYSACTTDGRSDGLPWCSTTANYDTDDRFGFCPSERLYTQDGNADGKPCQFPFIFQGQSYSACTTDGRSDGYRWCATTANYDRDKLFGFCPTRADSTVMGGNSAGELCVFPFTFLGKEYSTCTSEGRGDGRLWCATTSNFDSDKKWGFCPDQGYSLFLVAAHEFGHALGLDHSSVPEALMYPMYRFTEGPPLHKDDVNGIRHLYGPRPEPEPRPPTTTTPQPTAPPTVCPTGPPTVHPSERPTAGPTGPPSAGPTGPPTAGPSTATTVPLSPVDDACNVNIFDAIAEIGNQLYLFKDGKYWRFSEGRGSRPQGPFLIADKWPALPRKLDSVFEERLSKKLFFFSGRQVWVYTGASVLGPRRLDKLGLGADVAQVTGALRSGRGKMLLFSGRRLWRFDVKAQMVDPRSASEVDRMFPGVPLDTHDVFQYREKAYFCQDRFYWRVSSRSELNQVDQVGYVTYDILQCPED
T1 sequence (P14780 223-392 limits assumed): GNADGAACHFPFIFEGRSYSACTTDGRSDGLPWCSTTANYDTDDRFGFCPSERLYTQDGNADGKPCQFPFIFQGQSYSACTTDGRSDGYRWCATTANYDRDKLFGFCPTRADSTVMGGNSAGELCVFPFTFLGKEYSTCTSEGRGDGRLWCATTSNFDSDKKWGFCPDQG
Sequence of αM integrin I domain (P11215 150-328 limits assumed): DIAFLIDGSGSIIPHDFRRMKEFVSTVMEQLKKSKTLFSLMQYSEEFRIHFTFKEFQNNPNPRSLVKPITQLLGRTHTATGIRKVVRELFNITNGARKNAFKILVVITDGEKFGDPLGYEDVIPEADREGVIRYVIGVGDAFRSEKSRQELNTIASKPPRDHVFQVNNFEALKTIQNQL
Sequence of trypsin-activated MMP-9 (P14780 107-707 limits assumed): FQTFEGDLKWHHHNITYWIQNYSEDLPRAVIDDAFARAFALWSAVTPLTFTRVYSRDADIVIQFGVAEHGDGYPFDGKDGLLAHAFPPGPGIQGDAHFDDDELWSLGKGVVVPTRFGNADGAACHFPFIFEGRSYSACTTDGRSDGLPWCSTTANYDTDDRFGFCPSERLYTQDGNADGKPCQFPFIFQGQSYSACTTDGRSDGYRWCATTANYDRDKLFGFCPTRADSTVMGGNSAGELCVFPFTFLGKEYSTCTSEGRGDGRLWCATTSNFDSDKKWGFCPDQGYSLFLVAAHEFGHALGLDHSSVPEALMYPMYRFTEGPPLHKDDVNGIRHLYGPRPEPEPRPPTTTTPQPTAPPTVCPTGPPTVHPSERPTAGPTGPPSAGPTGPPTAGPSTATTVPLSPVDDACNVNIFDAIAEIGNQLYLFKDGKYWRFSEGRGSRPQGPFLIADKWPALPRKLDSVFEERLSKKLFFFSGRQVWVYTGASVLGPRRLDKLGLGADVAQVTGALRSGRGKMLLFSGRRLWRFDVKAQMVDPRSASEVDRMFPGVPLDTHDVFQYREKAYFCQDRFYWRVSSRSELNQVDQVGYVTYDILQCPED
Sequence of fibronectin (P02751 306-608 limits assumed): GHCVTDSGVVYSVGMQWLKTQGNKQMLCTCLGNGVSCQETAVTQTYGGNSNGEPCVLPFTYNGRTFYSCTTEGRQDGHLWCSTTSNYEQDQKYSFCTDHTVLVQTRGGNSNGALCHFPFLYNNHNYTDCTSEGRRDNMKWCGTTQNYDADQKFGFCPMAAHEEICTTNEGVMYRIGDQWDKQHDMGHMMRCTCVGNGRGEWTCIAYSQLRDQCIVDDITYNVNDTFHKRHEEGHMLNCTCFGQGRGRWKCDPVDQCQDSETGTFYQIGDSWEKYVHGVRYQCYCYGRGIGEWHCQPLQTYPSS

On to CTTHWGFTLC [reference compound], for which, in test [1], the “Inhibition of uPAR cleavage” value was “inhibited”. Further, the “Inhibition of pericellular gelatinolysis” value in test [2] is “inhibited”. The “Inhibition of gelatin degradation” value in test [3] is listed as “completely inhibits”. For the same molecule, the “Inhibition of gelatin binding to immobilized CBD” value in [4] is on record as “not”. In test [5], the “Binding of PPC peptide-bearing phage to pro-MMP-9, competition” value (“Binding of PPC peptide-bearing phage” for short) is “not” and the “Binding of the CRV-phage to pro-MMP-9, competition” value (“Binding of the CRV-phage” for short) is on record as “not”. For the same molecule, the “Inhibition of THP-1 migration” value in test [6] is “inhibitory effect”. The “Inhibition of HT1080 invasion into matrigel” value in test [7] (200 μM concentration) was 50%.
With gelatin, in [5], the “Binding of PPC peptide-bearing phage” value is on record as “inhibited” and the “Binding of the CRV-phage” value is “not”.
In the case of aprotinin, the “Inhibition of uPAR cleavage” value in [8] and in test [1] was “not” each time.
In the case of `O=C(O)[C@@H](Cc1ccccc1)NS(=O)(=O)c1ccc(-c2ccccc2)cc1` [InhI], the “Level of cell surface-bound uPA” value in test [8] (HT1080, InhI 20 μM) was “reduced”. The “Inhibition of uPAR cleavage” value in test [8] is on record as “inhibited uPAR cleavage”; in test [1], “inhibited”. Besides, the “Inhibition of pericellular gelatinolysis” value in test [2] is recorded as “inhibited”.
As for “TTPNSLLVSWQPPRARIT [PPC-like fibronectin peptide]”, the “Binding of biotinylated CBD to peptide on pepspot membrane” value in [9] is given as “bound”.
As for `N=C(N)c1ccccc1` [benzamidine], the “Inhibition of uPAR cleavage” value in test [8] was “not”.
With ADGACGYGRFSPPCGAAG, the “Effect on pro-MMP-9 activation” value in test [10] is listed as “augmented”. The “Inhibition of pericellular gelatinolysis” value in test [2] is given as “inhibited”. Also, the “Effect on interaction of MMP-9 with the leukocyte αM integrin I domain” value in test [11] is recorded as “do not affect”. In addition, in test [11] (typically), the “Higher pro-MMP-9 binding to the I domain in the presence of peptide” value is given as 20-50%. For the same molecule, the “Inhibition of gelatin binding to immobilized CBD” value in test [4] is “inhibited gelatin binding to immobilized CBD in a dose dependent manner”. Further, in [12], the “Inhibition of MMP-9 activity in gelatin degradation assay” value is “inhibited”. Also, in [5], the “Binding of PPC peptide-bearing phage” value was “inhibited” and the “Binding of the CRV-phage” value was “not”. For the same molecule, in test [13], the “Inhibition of MMP-2 activity in gelatin degradation assay” value is on record as “inhibited”. Moreover, the “Inhibition of CBD binding to fibronectin and vitronectin” value in test [14] is listed as “inhibited”. For the same molecule, the “Gelatinase inhibitor strength relative to CTT” value in [15] is “weaker gelatinase inhibitor than CTT”. The “Inhibition of THP-1 migration” value in [6] is recorded as “inhibitory effect”. For the same molecule, in test [16], the “Effect on gelatin binding to fibronectin” value is “no effect”. Besides, in test [7] (matrigel, read-out: Concentration required to achieve the same efficacy (50% inhibition of HT1080 invasion)), the IC50 stood at 500 µM.
Take “ADGACPSYGPRFGCGAAG [scr. PPC, scrambled control peptide of PPC, reference compound]”: the “Inhibition of MMP-9 activity in gelatin degradation assay” value in test [12] was “no effect”. The “Inhibition of MMP-2 activity in gelatin degradation assay” value in [13] is “no effect”.
